Data reported in US11578055B2, “Triazacyclododecansulfonamide (“TCD”)-based protein secretion inhibitors” (KEZAR LIFE SCIENCES, priority 2018, dated 2023).

Columns and labels:
[1] = system: full length TNFα (amino acids 1-233) fused to Gaussia Luciferase; test: Dox Induced TNFα-FL-Gluc Assay; format: cell-based; settings: 24 hr, Dox inducible, 293FRT/TO cells; read-out: 24 hr Dox Inducible TNFaFLGluc 293FRT/TO: Mean IC50
Summary of the method: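 Compounds diluted in DMSO/medium with doxycycline were incubated at 37° C, 5% CO2 with 293 T-REx cells stably carrying a Tet-regulated TNFα(1-233)-Gaussia luciferase construct. Data for structures drawn without stereochemistry refer to stereoisomer mixtures.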

[2] = system: HER3 signal sequence plus 4 amino acids fused to Gaussia Luciferase (HER3-ss+4aa/Gaussia Luciferase); test: Dox Induced HER3-ss-Gluc Assay; format: cell-based; settings: 24 hr, doxycycline induced, Flp-In 293 T-REx cells; read-out: 24 hr Dox Inducible Her3(ss + 4) Gluc 293FRT/TO: Mean 1050
From the text: FIp-In 293 T-REx™ cells were transfected with pcDNA™5/FRT/TO plasmid inserted with cDNA encoding Gaussia Luciferase fused to the 3′ end of cDNA encoding HER3 signal sequence plus 4 amino acids (N-[…]-C) (SEQ ID NO: 2). Transfected cells were selected for resistance to the selectable markers Hygromycin and Blasticidin to create a stable cell line that contained the HER3-ss+4aa/Gaussia Luciferase cDNA insert whose expression was regulated under the T-REx™ system. The day before assay, cells were trypsinized and plated in 384-well tissue culture plates. The next day, compound dilutions in DMSO/media containing doxycycline were added to the wells and incubated at 37° C., 5% CO2.
For chemical structures that include one or more stereoisomers, but are illustrated without indicating stereochemistry, the assay data refers to a mixture of stereoisomers.

[3] = system: multiple myeloma cell line U266B1; test: U266 Cell Viability Assay; format: cell-based, human; settings: Homo sapiens, U-266; 48 hr, U266, Celltiter-Glo
Summary of the method: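 Viability was measured by CellTiter-Glo luminescence after 48 h compound exposure at 37° C, 5% CO2. The cells were U266B1 multiple myeloma cells grown in RPMI 1640 plus 10% FBS. Where stereochemistry is not shown, values apply to the stereoisomer mixture.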

[4] = In Vitro Microsome Stability Assay (mouse); format: in vitro ADME; settings: mouse liver microsomes, 30 min w/ NADPH
Summary of the method: (§1)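 Species liver microsomes in potassium phosphate buffer were preincubated at 37 °C for 3–5 min with test compound (added from 0.25 mM DMSO stock), then started with NADPH. Samples at 0 and 30 min were quenched with acetonitrile containing internal standard and analysed by LC-MS/MS; % remaining at 30 min used analyte/IS AUC ratios relative to t=0.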

[5] = In Vitro Microsome Stability Assay (rat); format: in vitro ADME; settings: rat liver microsomes, 30 min w/ NADPH
Summary of the method: as §1

[6] = system: full length IL-2 (amino acids 1-153) fused to Gaussia Luciferase; test: Dox Induced IL2-FL-Gluc Assay; format: cell-based; settings: 24 hr, Dox inducible, 293FRT/TO cells; read-out: 24 hr Dox Inducible IL2FLGluc 293FRT/TO: Mean IC50
Summary of the method: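 Compounds in DMSO/media with doxycycline were added to cells plated the previous day and incubated at 37° C, 5% CO2. Cells: stable Flp-In 293 T-REx line, Dox-regulated expression of IL-2 (aa 1-153) fused at its C-terminus to Gaussia luciferase.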

[7] = system: PD1 signal sequence plus 10 amino acids fused to Gaussia Luciferase (PD1-ss+10aa/Gaussia Luciferase); test: Dox Induced PD1-ss-Gluc Assay; format: cell-based; settings: 24 hr, Dox inducible, 293FRT/TO cells; read-out: 24 hr Dox Inducible PD1ssGluc 293FRT/TO: Mean IC50
Summary of the method: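 Compound dilutions in DMSO/media containing doxycycline were applied to a stable, inducible 293 T-REx line carrying the luciferase fusion, then incubated at 37 °C, 5% CO2. Where stereochemistry is not drawn, values relate to isomer mixtures.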

[8] = In Vitro Microsome Stability Assay (monkey); format: in vitro ADME; settings: monkey liver microsomes, 30 min w/ NADPH
Summary of the method: as §1

[9] = In Vitro Microsome Stability Assay (human); format: in vitro ADME; settings: human liver microsomes, 30 min w/ NADPH
Summary of the method: as §1

[10] = system: multiple myeloma cell line NCl-H929; test: H929 Cell Viability Assay; format: cell-based, human; settings: Homo sapiens, NCI-H929, 48 h, H929, Celltiter-Glo
Summary of the method: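 Viability was determined by CellTiter-Glo luminescence after a 48 h, 37 °C exposure of NCI-H929 cells to serial compound dilutions in medium containing 10% FBS. Where stereochemistry is not shown, values refer to a mix of stereoisomers.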

SMILES	IC50 [1]	IC50 [2]	EC50 [3]	Liver Microsome Stability-% Left after 30 min w/ NADPH (%) Mouse [4]	Liver Microsome Stability-% Left after 30 min w/ NADPH (%) Rat [5]	IC50 [6]	IC50 [7]	Liver Microsome Stability-% Left after 30 min w/ NADPH (%) Monkey [8]	Liver Microsome Stability-% Left after 30 min w/ NADPH (%) Human [9]	EC50 [10]
COc1cc(F)cc(N2[C@H](C)CN(S(=O)(=O)N3CCCN(CC4CCCCC4)CCCN(S(=O)(=O)c4ccc(N(C)C)cc4)C[C@H](C)C3)C[C@H]2C)c1 [A200]	285 nM	29.1 nM	> 25000 nM	71.9%	83.1%	27.9 nM	11.2 nM	73.9%	78.1%	436 nM
CN(C)c1ccc(S(=O)(=O)N2CCCN(CC3CCCCC3)CCCN(S(=O)(=O)N3CCc4cc(Cl)ccc4C3)C[C@H]3CC[C@@H]32)cc1 [B22, 4-{[(1S,12R)-10-[(6-chloro-1,2,3,4-tetrahydroisoquinolin-2-yl]sulfonyl]-6-(cyclohexylmethyl)-2,6,10-triazabicyclo[10.2.0]tetradecan-2-yl]sulfonyl}-N,N-dimethylaniline]	519 nM	57.8 nM	> 25000 nM	8.31%	10.1%	80.5 nM	31.3 nM	1.77%	1.77%	1650 nM
COc1cc(F)cc(N2CCN(S(=O)(=O)N3CCCN(CC4CCCCC4)CCCN(S(=O)(=O)c4ccc(N(C)C)cc4)CC4(CC4)C3)C[C@H]2C)c1 [A195]	11200 nM	382 nM	> 25000 nM	58.5%	63.3%	668 nM	211 nM	32.8%	53.6%	> 25000 nM
COc1cc(F)ccc1N1CCN(S(=O)(=O)N2CCCN(CC3CCCCC3)CCCN(S(=O)(=O)c3ccc(N(C)C)cc3)CC3(CC3)C2)CC1 [A193]	748 nM	50.9 nM	> 25000 nM	10.1%	11.3%	81.8 nM	23.8 nM	7.72%	34.2%	6810 nM
C[C@H]1CN(S(=O)(=O)c2ccc(N(C)C)cc2)CCCN(CC2CCCCC2)CCCN(S(=O)(=O)N(C)Cc2ccccc2)C1 [A184, (3S)-N-benzyl-9-(cyclohexylmethyl)-5-[4-(dimethylamino)benzenesulfonyl]-N,3-dimethyl-1,5,9-triazacyclododecane-1-sulfonamide]	1080 nM	156 nM	> 25000 nM	5.64%	7.47%	233 nM	100 nM	1.23%	2.56%	6920 nM
C[C@H]1CN(S(=O)(=O)c2ccc(N(C)C)cc2)CCCN(CCC2CC2)CCCN(S(=O)(=O)N2CCc3cc(Cl)ccc3C2)C1 [A122, 4-{[(3S)-5-[(6-chloro-1,2,3,4-tetrahydroisoquinolin-2-yl)sulfonyl]-9-(2-cyclopropylethyl)-3-methyl-1,5,9-triazacyclododecan-1-yl]sulfonyl}-N,N-dimethylaniline]	885 nM	111 nM	> 25000 nM	36.4%	0.17%	135 nM	51.9 nM	0.15%	0.38%	2420 nM
C[C@H]1CN(S(=O)(=O)c2ccc(N(C)C)cc2)CCCN([C@@H](C)C2CCCCC2)CCCN(S(=O)(=O)N2CCc3cc(Cl)ccc3C2)C1 [A190, 4-{[(3S)-5-[(6-chloro-1,2,3,4-tetrahydroisoquinolin-2-yl)sulfonyl]-9-[(1 S)-1-cyclohexylethyl]-3-methyl-1,5,9-triazacyclododecan-1-yl]sulfonyl}-N,N-dimethylaniline]	295 nM	35.6 nM	> 25000 nM	69.3%	85.3%	45.7 nM	16.2 nM	71.6%	74.1%	867 nM
COc1cccc(N2CCN(S(=O)(=O)N3CCCN(CC4CCCCC4)CCCN(S(=O)(=O)c4ccc(N(C)C)cc4)C[C@H](C)C3)CC2)c1 [A201, 4-{[(3S)-9-(cyclohexylmethyl)-5-{[4-(3-methoxyphenyl)piperazin-1-yl]sulfonyl}-3-methyl-1,5,9-triazacyclododecan-1-yl]sulfonyl}-N,N-dimethylaniline]	7090 nM	211 nM	> 25000 nM	39.1%	35.4%	283 nM	118 nM	26.5%	32.8%	> 25000 nM
C[C@H]1CN(S(=O)(=O)c2ccc(N(C)C)cc2)CCCN([C@H](C)C2CCCCC2)CCCN(S(=O)(=O)N2CCc3cc(Cl)ccc3C2)C1 [A191, 4-{[(3S)-5-[(6-chloro-1,2,3,4-tetrahydroisoquinolin-2-yl)sulfonyl]-9-[(1 R)-1-cyclohexylethyl]-3-methyl-1,5,9-triazacyclododecan-1-yl]sulfonyl}-N,N-dimethylaniline]	1100 nM	117 nM	> 25000 nM	55.3%	65.0%	145 nM	57.6 nM	68.3%	48.6%	6730 nM
COc1ccc([C@@H]2CCCN(S(=O)(=O)N3CCCN(CC4CCCCC4)CCCN(S(=O)(=O)c4ccc(N(C)C)cc4)C[C@H](C)C3)C2)cc1 [A208, 4-{[(3S)-9-(cyclohexylmethyl)-5-{[(3S)-3-(4-methoxyphenyl)piperidin-1-yl]sulfonyl]-3-methyl-1,5,9-triazacyclododecan-1-yl]sulfonyl}-N,N-dimethylaniline]	> 25000 nM	428 nM	> 25000 nM	51.8%	68.9%	616 nM	343 nM	37.5%	23.3%	> 25000 nM
